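A five-concentration, 48-hour dose response in 96-well plates underlies each endpoint, interpolated linearly between surrounding concentrations. TGI is the concentration that stops growth completely.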
Columns and labels:
Assay in all cases: DTP human tumour cell line panel, 48 h
[1] = tested on: SK-OV-3 ovarian
[2] = tested on: OVCAR-4 ovarian
[3] = tested on: MALME-3M melanoma
[4] = tested on: CCRF-CEM leukemia
[5] = tested on: HCT-15 colon
[6] = tested on: SW-620 colon
[7] = tested on: SF-268 CNS
[8] = tested on: SK-MEL-5 melanoma
[9] = tested on: RXF 393 renal
[10] = tested on: NCI-H23 lung
[11] = tested on: OVCAR-5 ovarian
[12] = tested on: SNB-19 CNS
[13] = tested on: MDA-N
[14] = tested on: EKVX NSCLC
[15] = tested on: OVCAR-8 ovarian
[16] = tested on: SK-MEL-28 melanoma
[17] = tested on: NCI-H226 lung
[18] = tested on: COLO 205 colon
[19] = tested on: K-562 leukemia
[20] = tested on: DU-145 prostate
[21] = tested on: LOX IMVI melanoma
[22] = tested on: HL-60(TB) leukemia
[23] = tested on: HS 578T breast
[24] = tested on: ACHN renal
[25] = tested on: SF-295 CNS
[26] = tested on: TK-10 renal
[27] = tested on: NCI-H522 lung
[28] = tested on: MOLT-4 leukemia
[29] = tested on: MDA-MB-231 breast
[30] = tested on: U251 CNS
[31] = tested on: HOP-62 NSCLC
[32] = tested on: SK-MEL-2 melanoma
[33] = tested on: M14 melanoma
[34] = tested on: MDA-MB-435
[35] = tested on: IGROV1 ovarian
[36] = tested on: SR leukemia
[37] = tested on: KM12 colon
[38] = tested on: SN12C renal
[39] = tested on: 786-0 renal
[40] = tested on: RPMI-8226 leukemia
[41] = tested on: NCI/ADR-RES ovarian
[42] = tested on: A498 renal
[43] = tested on: SF-539 CNS
[44] = tested on: CAKI-1 renal
[45] = tested on: PC-3 prostate
[46] = tested on: UO-31 renal
[47] = tested on: HOP-92 NSCLC
[48] = tested on: SNB-75 CNS
[49] = tested on: OVCAR-3 ovarian
[50] = tested on: NCI-H460 lung
[51] = tested on: HCT-116 colon
[52] = tested on: HT29 colon
[53] = tested on: A549 NSCLC
[54] = tested on: MCF7 breast
[55] = tested on: UACC-62 melanoma
[56] = tested on: UACC-257 melanoma
[57] = tested on: HCC-2998 colon
[58] = tested on: T-47D breast

Compound: CCOc1c2c(cc3c1C(=O)c1c(OC)cccc1C3=O)C=C(OC)CC2
- TGI [1]: > 25 µM
- TGI [2]: > 25 µM
- TGI [3]: > 25 µM
- TGI [4]: > 25 µM
- TGI [5]: > 25 µM
- TGI [6]: > 25 µM
- TGI [7]: > 25 µM
- TGI [8]: > 25 µM
- TGI [9]: > 25 µM
- TGI [10]: > 25 µM
- TGI [11]: > 25 µM
- TGI [12]: > 25 µM
- TGI [13]: 19.9 µM
- TGI [14]: > 25 µM
- TGI [15]: > 25 µM
- TGI [16]: > 25 µM
- TGI [17]: > 25 µM
- TGI [18]: > 25 µM
- TGI [19]: > 25 µM
- TGI [20]: > 25 µM
- TGI [21]: > 25 µM
- TGI [22]: 13.2 µM
- TGI [23]: > 25 µM
- TGI [24]: > 25 µM
- TGI [25]: > 25 µM
- TGI [26]: > 25 µM
- TGI [27]: > 25 µM
- TGI [28]: > 25 µM
- TGI [29]: > 25 µM
- TGI [30]: > 25 µM
- TGI [31]: > 25 µM
- TGI [32]: > 25 µM
- TGI [33]: > 25 µM
- TGI [34]: > 25 µM
- TGI [35]: > 25 µM
- TGI [36]: 22.9 µM
- TGI [37]: > 25 µM
- TGI [38]: > 25 µM
- TGI [39]: > 25 µM
- TGI [40]: > 25 µM
- TGI [41]: > 25 µM
- TGI [42]: > 25 µM
- TGI [43]: > 25 µM
- TGI [44]: > 25 µM
- TGI [45]: > 25 µM
- TGI [46]: > 25 µM
- TGI [47]: > 25 µM
- TGI [48]: > 25 µM
- TGI [49]: > 25 µM
- TGI [50]: > 25 µM
- TGI [51]: > 25 µM
- TGI [52]: > 25 µM
- TGI [53]: > 25 µM
- TGI [54]: > 25 µM
- TGI [55]: > 25 µM
- TGI [56]: > 25 µM

Compound: C1CCC(CC2CCC(NC3=NCCO3)CC2)CC1 (stereo not drawn)
- TGI [1]: 38.4 µM
- TGI [2]: 48.2 µM
- TGI [57]: 37.1 µM
- TGI [3]: 29.7 µM
- TGI [4]: 61.9 µM
- TGI [5]: 30.1 µM
- TGI [6]: 41.7 µM
- TGI [7]: 62.1 µM
- TGI [8]: 33.7 µM
- TGI [9]: 36.6 µM
- TGI [10]: 36.5 µM
- TGI [11]: 53.6 µM
- TGI [12]: 34.3 µM
- TGI [13]: 35.9 µM
- TGI [58]: 54.3 µM
- TGI [14]: 54.4 µM
- TGI [15]: 30.9 µM
- TGI [16]: 33.2 µM
- TGI [17]: 34.3 µM
- TGI [18]: 28.2 µM
- TGI [19]: 32.9 µM
- TGI [20]: 94.9 µM
- TGI [21]: 30.9 µM
- TGI [22]: 34 µM
- TGI [23]: 40.6 µM
- TGI [24]: 35.5 µM
- TGI [25]: 36 µM
- TGI [26]: 28.6 µM
- TGI [27]: 41.9 µM
- TGI [28]: 48.1 µM
- TGI [29]: 37.5 µM
- TGI [30]: 33.3 µM
- TGI [31]: 39.4 µM
- TGI [32]: 32.4 µM
- TGI [33]: 33.8 µM
- TGI [34]: 32.3 µM
- TGI [35]: 37.1 µM
- TGI [36]: 52.6 µM
- TGI [37]: 32.7 µM
- TGI [38]: 42.5 µM
- TGI [39]: 29.2 µM
- TGI [40]: 55.9 µM
- TGI [41]: 37.3 µM
- TGI [42]: 53.3 µM
- TGI [43]: 31.1 µM
- TGI [44]: 50.7 µM
- TGI [45]: 31.7 µM
- TGI [46]: 35.9 µM
- TGI [48]: 36.6 µM
- TGI [49]: 30.6 µM
- TGI [50]: 37.1 µM
- TGI [51]: 30.6 µM
- TGI [52]: 17.1 µM
- TGI [53]: > 100 µM
- TGI [54]: 32.1 µM
- TGI [55]: 31.1 µM
- TGI [56]: 30.1 µM
